{
  "source": "patent US20020019420A1",
  "about": "“Methods and compositions for treating gastric disorders using optically pure (+)-pantoprazole” (Sepracor Inc., priority 1993, published 2002)",
  "key": {"[1]": {"test_system": "endogenous acid secretion", "assay": "reduction of endogenous acid secretion in pylorus-ligated rats", "assay_type": "in vivo, rat", "source_text": "This may increase pantoprazole's selectivity for the acid secreting parietal cells, where low pH conditions exist in the intracellular canaliculi. In intact animals, pantoprazole is active in inhibiting gastric acid secretion in both rats and dogs. Specifically, the intravenous and oral doses required to reduce endogenous acid secretion in pylorus-ligated rats by 50% are in the 1-3 μmole/kg range. […] Racemic pantoprazole is also effective at doses less than 5 μmole/kg in inhibiting exogenously stimulated acid. secretion induced by a variety of agonists, indicating general activity of the drug in inhibiting acid secretion."}, "[2]": {"details": "neutral and moderately acidic conditions; cited from earlier work"}, "[3]": {"details": "cited from earlier work"}, "[4]": {"assay": "acute toxicity LD50 in mice", "assay_type": "in vivo"}, "[5]": {"test_system": "hepatic drug metabolizing enzyme systems", "details": "intact rats and rat microsomal enzyme preparations; cited from earlier work"}, "[6]": {"details": "rat, cited from earlier work"}, "[7]": {"test_system": "endogenous acid secretion", "details": "pylorus-ligated rats, cited from earlier work"}, "[8]": {"details": "humans, short-term administration; cited from earlier work"}, "[9]": {"test_system": "exogenously stimulated acid secretion", "details": "variety of agonists; cited from earlier work"}, "[10]": {"details": "patients with duodenal ulcers, after four weeks of 20 to 80 mg per day; cited from earlier work"}, "[11]": {"details": "rats, two year study; cited from earlier work"}, "[12]": {"details": "weak acid; cited from earlier work"}, "beta-adrenergic": {"test_system": "beta-adrenergic", "details": "L-form versus D-enantiomer; cited from earlier work"}},
  "note": "Read-outs that look alike come from different tables or passages of the source.",
  "data": [
    {"smiles": "COc1ccnc(C[S+]([O-])c2nc3ccc(OC(F)F)cc3[nH]2)c1OC", "note": "(racemic) [racemic pantoprazole]", "values": [
      {"measurement": "calculated oral/intravenous (p.o./i.v.) ratio of the 50% doses", "setting": "[1]", "result": "approximately 2"},
      {"measurement": "chemical stability compared with omeprazole", "setting": "[2]", "result": "more chemically stable"},
      {"measurement": "intravenous LD50", "setting": "[3]; mice, intravenous", "result": 975, "unit": "µmol/kg"},
      {"measurement": "oral LD50", "setting": "[3]; mouse, in vivo, po", "result": "1,893 μmol/kg"},
      {"measurement": "p.o./i.v. LD50 ratio", "setting": "[4]", "result": "approximately 2"},
      {"measurement": "inhibition of hepatic drug metabolizing enzyme systems compared to omeprazole", "setting": "[5]", "result": "weaker inhibitor"},
      {"measurement": "oral LD50", "setting": "[6]; in vivo, po", "result": "> 2,467 μmol/kg"},
      {"measurement": "intravenous LD50", "setting": "[6]; intravenous", "result": 632, "unit": "µmol/kg"},
      {"measurement": "intravenous dose required to reduce endogenous acid secretion by 50%", "setting": "[7]; intravenous", "result": "1 to 3", "unit": "µmol/kg"},
      {"measurement": "oral dose required to reduce endogenous acid secretion by 50%", "setting": "[7]; oral", "result": "1 to 3", "unit": "µmol/kg"},
      {"measurement": "fasting serum gastrin levels", "setting": "[8]", "result": "significantly elevated"},
      {"measurement": "effective dose inhibiting exogenously stimulated acid secretion", "setting": "[9]", "result": "less than 5 μmole/kg"},
      {"measurement": "ulcer healing", "setting": "[10]", "result": "90-100%"},
      {"measurement": "finding in carcinogenicity study", "setting": "[11]", "result": "hepatocellular neoplasia"}
    ]},
    {"smiles": "COc1ccnc(C[S+]([O-])c2nc3ccc(OC(F)F)cc3[nH]2)c1OC", "note": "(single isomer, unassigned; (+)) [(+) pantoprazole, (+) isomer of 5-(difluoromethoxy)-2-[[3,4-dimethoxy-2-pyridinyl)methyl]sulfinyl]-1H-benzimidazole]", "values": [
      {"measurement": "PKa", "setting": "[12]", "result": 8.2}
    ]},
    {"smiles": "CC(C)NC[C@H](O)COc1cccc2ccccc12", "note": "[L-form of propranolol, propranolol]", "values": [
      {"measurement": "potency relative to the D-enantiomer", "setting": "beta-adrenergic", "result": 100, "unit": "times"}
    ]}
  ]
}
